From publication PMC8880313, “Discovery of Novel Andrographolide Derivatives as Antiviral Inhibitors against Human Enterovirus A71” (Pharmaceuticals, 2022)

How the values were obtained:
RD cells = assay: Cell viability assay (alamarBlue); assay type: cell-based, human; details: 10 µM, 12 h
Method: (§1) Firstly, we performed cell viability assay to evaluate the cytotoxicity profile of the 19 hits. Cells seeded overnight were treated with the hit compounds at 10 µM. […] Anti-EV-A71 activity of AGP-253 had been illustrated and discussed previously. We were particularly interested in ZAF-46 and ZAF-47 as they belonged to the same series bearing novel 14-quinolinoxy and 17-hydro-8,9-olefin modifications (Figure 2b) that could potentially open up new targets for EV-A71 therapeutics. Additional cell viability assays were performed for ZAF-46 and ZAF-47 at different concentrations to identify the low cytotoxic concentrations for downstream post-treatment assays. For post-treatment assays, cells seeded overnight were infected with EV-A71 and subsequently treated with ZAF-46 and ZAF-47 at different concentrations. […] Treatment with ZAF-46 led to 1.4 log reduction at 10 µM and 2.4 log reduction at 20 µM (Figure 2c) while treatment with ZAF-47 led to 0.8 log reduction at 5 µM, 1.1 log reduction at 10 µM and 2.1 log reduction at 20 µM (Figure 2d). CC50 and IC50 for both compounds were determined and used to derive their SI (Table 2). ZAF-47 was selected for further downstream analysis due to its higher SI value which indicate higher pharmacological value for clinical use.
(§2) To determine the cytotoxicity profiles of the hits, cell viability assay was performed. Seeded 96-well plates, with 2 × 10^4 RD cells per well, were incubated overnight at 37 °C with 5% CO2. Different concentrations of drug hits, diluted by reduced serum DMEM, were used to treat the seeded cells for 12 h at 37 °C with 5% CO2. Reduced serum DMEM, was employed as the negative control and 0.1% DMSO as the vehicle control for this step. Subsequently, the supernatant was replaced with alamarBlue^TM Cell Viability Reagent (Thermo Fisher Scientific, Waltham, MA, USA) (100 µL), diluted 10-fold in reduced serum DMEM, and incubated for 3 h at 37 °C with 5% CO2. Fluorescence intensity in each well was measured at 570 nm excitation wavelength and 600 nm emission wavelength in each well by the Infinite^TM 200 series microplate reader (Tecan, Männedorf, Switzerland) and normaliszd with the negative control to determine the relative cell viability.

[1] = Cell viability assay (alamarBlue); assay type: cell-based, human; details: human, RD cells
Method: as §1, §2

EV-A71 RNA = assay: Entry bypass assay (EV-A71 RNA transfection); assay type: cell-based, human enterovirus A71 (EV-A71) strain 41; details: 12 hpi
Method: (§3) To confirm this finding, assays to investigate the effect of ZAF-47 on EV-A71 entry into cells were performed. With pre-treatment assay, we first treated the cells with different concentrations of ZAF-47 before subjecting them to EV-A71 infection. The aim was to investigate if ZAF-47 was able to bind to host surface receptors which would prevent the virions from binding and thus blocking viral entry. […] Even at the highest concentration, the reduction in viral titre (0.8 log10 PFU/mL decrease) was not as pronounced as post-treatment and could likely be due to drug toxicity. Thus, it is unlikely that ZAF-47 inhibits EV-A71 infection by binding with host receptors to block viral entry. With co-treatment assay, we first treated EV-A71 virions with ZAF-47 for 30 min before infecting the cells. The aim was to investigate if ZAF-47 was able to bind to viral surface proteins which would prevent the virions from binding to the host receptors and thus blocking viral entry. […] Thus, it is unlikely that ZAF-47 blocks EV-A71 entry into host cells by binding to viral surface proteins. Instead, using entry bypass assay, we were able to deduce that ZAF-47 most likely targets EV-A71 post-entry stages. […]
(§4) Seeded 24-well plates, with 1.5 × 10^5 RD cells per well, were incubated overnight at 37 °C with 5% CO2. […] The plates were frozen down at 12 hpi for viral titre quantification using viral plaque assay.

EV-A71 virions = assay: Co-treatment assay; assay type: cell-based, human enterovirus A71 (EV-A71) strain 41; details: 20 µM with virions for 30 min, 12 hpi
Method: as §3, §4

CC(=O)OC[C@]1(C)C(=O)CC[C@@]2(C)C(C/C=C3/C(=O)OC[C@@H]3Oc3cccc4cccnc34)=C(C)CC[C@@H]21 [ZAF-47, (14β)-(8′-Quinolinoxy)-3-ketone-9-dehydro-17-hydro-19-acetoxy–andrographolide]
cytotoxicity (RD cells): low cytotoxicity
CC50 at 12 h [1]: 29.6 µM
viral reduction (EV-A71 RNA; 10 µM): 0.9 log
viral reduction (EV-A71 RNA; 20 µM): 2.6 log
viral titre versus DMSO treatment (EV-A71 virions): no significant difference
